# What was measured:
# [1] = test system: Geobacillus stearothermophilus spores (ATCC 7953); assay: Fluorescence from enzyme substrates incubated with Geobacillus stearothermophilus spores in culture media; type: cell-based; details: substrate 0.1 mg/mL, 60° C.
# [2] = Enzyme substrate degradation in culture media at various temperatures (fluorescence); type: physicochemical; details: 0.3 mg/mL; for MEASURED FLUORESCENCE, RFU 70° C. 15 min: 70° C. dry heat block 15 min; for MEASURED FLUORESCENCE, RFU 100° C. 15 + 15 min: 100° C. 15 min, second time 15 min; for MEASURED FLUORESCENCE, RFU 100° C. 15 min: 100° C. heat block 15 min; for MEASURED FLUORESCENCE, RFU RT 15 min: room temperature (24.5° C.)
# Procedure: Culture media was prepared by dissolving 5 g/L peptone C (BD 211921) and 12 g/L phytone peptone (BD BBL 211906) in deionized water. The pH was adjusted with 1 N NaOH or 0.1 N HCl, the media brought to volume, and then filter sterilized with a 0.22 micron PES filter. Stock solutions ([…]) of 8′-fluoro-4′-methylumbelliferyl-α-D-glucopyranoside, 6′-fluoro-4′-methylumbelliferyl-α-D-glucopyranoside, and 4-methylumbelliferyl-α-D-glucopyranoside were prepared in DMSO. The aforementioned substrates were added to culture media at a final concentration of 0.1 mg/ml and media were then 0.22 μm filter sterilized.
# (§1) One milliliter of filter-sterilized culture media (pH 6) containing 0.3 mg/ml of 8′-fluoro-4′-methylumbelliferyl-[…]-D-glucopyranoside substrate was transferred to three 1.5 ml microcentrifuge tubes. One of the 1.5 ml tubes was kept at room temperature (24.5° C.). The second tube was placed in a 70° C. dry heat block for 15 min and the third tube was placed in a 100° C. heat block for 15 min. Tubes were kept at room temperature for 30 min following heat exposure, briefly vortexed and centrifuged to collect liquid. One hundred microliters of culture media with substrate from each of the tubes was transferred to two wells (100 microliters per well) of a black 96-well microtiter plate with (NUNC #165301, Thermo Fisher Scientific). The top of the plate was covered with an optically clear sealing film (product #4311971, Applied Biosystems Corporation). Fluorescence readings (360 nm excitation/455 nm emission at 50% gain) were taken from the top of the plate.
# (§2) The tube exposed to 100° C. (with 800 ul of remaining media with substrate) was exposed for a second time to 100° C. for 15 min in a dry heat block. One hundred microliters of culture media with substrate from the tube was transferred to two wells (100 microliters per well) of a black 96-well microtiter plate with (NUNC #165301, Thermo Fisher Scientific). The top of the plate was covered with an optically clear sealing film (product #4311971, Applied Biosystems Corporation). Fluorescence readings (360 nm excitation/455 nm emission at 50% gain) were taken from the top of the plate. In Table 9, the mean fluorescence values detected (RFU) for each of the heating conditions are reported.
# as §1, with “7)” for “6)”
# as §2, with “10,” for “9,”, “reported. […]” for “reported.”
# [3] = pH 6 culture media, 5×10^3 spores
# [4] = pH 6 culture media, 5×10^6 spores
# [5] = pH 7 culture media, 5×10^6 spores
# [6] = pH 8 culture media, 5×10^3 spores
# [7] = pH 8 culture media, 5×10^6 spores
# [8] = pH 9 culture media, 5×10^3 spores
# [9] = pH 9 culture media, 5×10^6 spores
smiles,measurement,setting,value
"Cc1cc(=O)oc2cc(O[C@H]3O[C@H](CO)[C@@H](O)[C@H](O)[C@H]3O)ccc12 [MUG, 4′-methylumbelliferyl-α-D-glucopyranoside]","MEASURED FLUORESCENCE, RFU +5 min",[1]; [3],585 RFU
same,"MEASURED FLUORESCENCE, RFU +30 min",[1]; [3],1210 RFU
same,"MEASURED FLUORESCENCE, RFU 10 sec",[1]; [4],4600 RFU
same,"MEASURED FLUORESCENCE, RFU +5 min",[1]; [4],9209 RFU
same,"MEASURED FLUORESCENCE, RFU +10 min",[1]; [4],10250 RFU
same,"MEASURED FLUORESCENCE, RFU +30 min",[1]; [4],9996 RFU
same,"MEASURED FLUORESCENCE, RFU 10 sec","[1]; pH 7 culture media, 5×10^3 spores",676 RFU
same,"MEASURED FLUORESCENCE, RFU 10 sec",[1]; [5],10780 RFU
same,"MEASURED FLUORESCENCE, RFU +5 min",[1]; [5],22443 RFU
same,"MEASURED FLUORESCENCE, RFU +10 min",[1]; [5],26791 RFU
same,"MEASURED FLUORESCENCE, RFU +30 min",[1]; [5],24911 RFU
same,"MEASURED FLUORESCENCE, RFU 10 sec",[1]; [6],704 RFU
same,"MEASURED FLUORESCENCE, RFU +5 min",[1]; [6],661 RFU
same,"MEASURED FLUORESCENCE, RFU +10 min",[1]; [6],700 RFU
same,"MEASURED FLUORESCENCE, RFU 10 sec",[1]; [7],12320 RFU
same,"MEASURED FLUORESCENCE, RFU +5 min",[1]; [7],32993 RFU
same,"MEASURED FLUORESCENCE, RFU +10 min",[1]; [7],51516 RFU
same,"MEASURED FLUORESCENCE, RFU +30 min",[1]; [7],53517 RFU
same,"MEASURED FLUORESCENCE, RFU 10 sec",[1]; [8],698 RFU
same,"MEASURED FLUORESCENCE, RFU +5 min",[1]; [8],634 RFU
same,"MEASURED FLUORESCENCE, RFU +10 min",[1]; [8],621 RFU
same,"MEASURED FLUORESCENCE, RFU +30 min",[1]; [8],1153 RFU
same,"MEASURED FLUORESCENCE, RFU 10 sec",[1]; [9],5777 RFU
same,"MEASURED FLUORESCENCE, RFU +5 min",[1]; [9],19462 RFU
same,"MEASURED FLUORESCENCE, RFU +10 min",[1]; [9],43381 RFU
same,"MEASURED FLUORESCENCE, RFU +30 min",[1]; [9],64660 RFU
same,"MEASURED FLUORESCENCE, RFU 70° C. 15 min",[2]; pH 6 culture media,774.5 RFU
same,"MEASURED FLUORESCENCE, RFU 100° C. 15 + 15 min",[2]; pH 6 culture media,888 RFU
same,"MEASURED FLUORESCENCE, RFU 100° C. 15 min",[2]; pH 6 culture media,829 RFU
same,"MEASURED FLUORESCENCE, RFU RT 15 min","[2]; pH 6 culture media, no spores, 360 nm excitation/455 nm emission",751 RFU
same,"MEASURED FLUORESCENCE, RFU 70° C. 15 min",[2]; pH 7 culture media,809 RFU
same,"MEASURED FLUORESCENCE, RFU 100° C. 15 + 15 min",[2]; pH 7 culture media,893.5 RFU
same,"MEASURED FLUORESCENCE, RFU 100° C. 15 min",[2]; pH 7 culture media,862 RFU
same,"MEASURED FLUORESCENCE, RFU RT 15 min",[2]; pH 7 culture media,671 RFU
same,"MEASURED FLUORESCENCE, RFU 70° C. 15 min",[2]; pH 8 culture media,823.5 RFU
same,"MEASURED FLUORESCENCE, RFU 100° C. 15 + 15 min",[2]; pH 8 culture media,939 RFU
same,"MEASURED FLUORESCENCE, RFU 100° C. 15 min",[2]; pH 8 culture media,857.5 RFU
same,"MEASURED FLUORESCENCE, RFU RT 15 min",[2]; pH 8 culture media,788.5 RFU
same,"MEASURED FLUORESCENCE, RFU 70° C. 15 min",[2]; pH 9 culture media,862.5 RFU
same,"MEASURED FLUORESCENCE, RFU 100° C. 15 + 15 min",[2]; pH 9 culture media,1099 RFU
same,"MEASURED FLUORESCENCE, RFU 100° C. 15 min",[2]; pH 9 culture media,978.5 RFU
same,"MEASURED FLUORESCENCE, RFU RT 15 min",[2]; pH 9 culture media,694 RFU

# From patent US12486301B2, “8-fluoro-4-alkylumbelliferyl α-D-glucopyranoside, biological sterilization indicator including the same and its use in a method of determining efficacy of a sterilization process” (Solventum Intellectual Properties Company, priority 2019, dated 2025)
